The values below come from US20240076284A1, “NEW COMPOUNDS AND METHODS” (BENEVOLENTAI BIO LIMITED, priority 2020, published 2024).

The term IC50 denotes the point on the concentration scale where inhibition reaches its midpoint. Low values mean greater potency, high ones weaker potency.

Data set [1] has as its target T1, Ba/F3 cells expressing BCR-ABL (Homo sapiens, UniProt P00519).
T1 construct: BCR (fusion partner, N-terminal portion of BCR); host or cells: Ba/F3 (murine pro-B cells); the other entry of the earlier key: BCR (P11274, Breakpoint cluster region protein)
T1 sequence (P00519 229-512 limits assumed): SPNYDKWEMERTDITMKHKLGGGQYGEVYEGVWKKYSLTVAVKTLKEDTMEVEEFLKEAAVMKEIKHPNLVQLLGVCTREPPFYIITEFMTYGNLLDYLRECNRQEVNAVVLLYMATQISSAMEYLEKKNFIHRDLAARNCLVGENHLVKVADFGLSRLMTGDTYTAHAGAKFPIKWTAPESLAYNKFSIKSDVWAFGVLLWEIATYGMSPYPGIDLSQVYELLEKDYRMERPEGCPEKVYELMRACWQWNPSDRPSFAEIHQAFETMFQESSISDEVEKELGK
The data set is described as follows: Ba/F3 CellTiter-Glo Assay. In kind it is cell-based. The note with it: 48 h incubation, CellTiter-Glo luminescence. As for the experimental part:
The CellTiter-Glo luminescent cell viability assay is a homogeneous method of determining the number of viable cells in culture based on quantification of the ATP present. Briefly, IL-3 dependent Ba/F3 cells are modified to express BCR-ABL. Activity of the transformed kinase overrides IL-3 dependency for cellular proliferation and survival. […] In this assay Ba/F3 cells expressing BCR-ABL (Advanced Cellular Dynamics) or parental Ba/F3 (control) cells were prepared at 5×10^4/mL in RPMI 1640 containing 10% FBS, 1×Glutamax and 750 ng/mL puromycin. Test compounds were dispensed into 384 well plates using the Tecan D300e at a top final assay concentration of 10 μM with dosing normalised to 0.1% DMSO in […]. 50 μL cells were added to each well of the prepared 384 well plates and the plates spun at 1000 rpm for 1 min prior to incubation at 37° C., 5% CO2 for 48 h. After 48 h 15 μL CellTiter-Glo reagent was added to each well in the plate. Following a 60 min incubation at rt luminescence was read on the Pherastar FS reader.

Another data set concerns the target T2, MDR1 (Homo sapiens, UniProt P08183).
T2 construct: expressed in transfected cells; host or cells: MDCK (canine kidney) cells
The data set is described as follows: MDR1-MDCK effective efflux ratio. As to conditions: MDR1-MDCK relative to wild-type MDCK, 1 μM, 60 minutes, pH 7.4. In kind it is in vitro ADME. How it is done:
(§1) Wild-type MDCK, MDR1-MDCK and BCRP-MDCK cells were seeded into 24 well Transwell plates and cultured for 3 days to form monolayers. Test compound were prepared at 1 μM in Hanks' Balanced Salt Solution containing 25 mM HEPES and loaded into the donor compartments of Transwell plates bearing the cell monolayers (pH 7.4 for both donor and receiver compartments). Lucifer Yellow was added to the apical buffer in all wells to assess integrity of the cell monolayer. Duplicate wells were prepared and incubated at 37° C. in a CO2 incubator. Samples were removed at time zero and 60 minutes and test compound analysed by LC-MS/MS. Concentrations of Lucifer Yellow in the samples was measured using a fluorescence plate reader. The apparent permeability (Papp) values of test compound was determined for both the apical to basal (A>B) and basal to apical (B>A) permeation and the efflux ratio (B>A: A>B) determined in each cell line. The effective efflux ratio was determined from the ratio of either MDR1-MDCK cells or BCRP-MDCK cells relative to the ratio observed in wild-type cells. A higher value represent a better substrate for the efflux mechanism, which is less preferable.

A further data set addresses T3, BCRP (Homo sapiens, UniProt Q9UNQ0).
T3 construct: expressed in transfected cells; host or cells: MDCK (canine kidney) cells
T3 sequence (Q9UNQ0 1-655): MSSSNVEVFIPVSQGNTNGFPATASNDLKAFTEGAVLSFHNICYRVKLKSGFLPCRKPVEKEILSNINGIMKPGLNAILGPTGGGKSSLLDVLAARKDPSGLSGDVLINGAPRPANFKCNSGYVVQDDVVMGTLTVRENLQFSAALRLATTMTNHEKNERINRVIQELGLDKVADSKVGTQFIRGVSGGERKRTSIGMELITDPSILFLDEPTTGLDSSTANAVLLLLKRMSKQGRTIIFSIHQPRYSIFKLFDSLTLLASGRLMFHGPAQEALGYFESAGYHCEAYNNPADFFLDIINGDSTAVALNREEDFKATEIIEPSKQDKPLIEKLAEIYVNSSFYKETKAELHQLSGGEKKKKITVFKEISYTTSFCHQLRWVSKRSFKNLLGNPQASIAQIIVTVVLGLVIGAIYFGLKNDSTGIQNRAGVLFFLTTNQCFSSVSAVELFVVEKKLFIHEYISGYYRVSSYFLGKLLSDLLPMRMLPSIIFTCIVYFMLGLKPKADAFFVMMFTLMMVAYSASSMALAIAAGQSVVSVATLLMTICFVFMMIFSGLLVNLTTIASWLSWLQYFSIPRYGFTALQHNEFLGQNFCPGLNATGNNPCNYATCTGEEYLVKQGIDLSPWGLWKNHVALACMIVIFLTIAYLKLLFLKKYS
In words: BCRP-MDCK effective efflux ratio. In kind it is in vitro ADME. The note with it: BCRP-MDCK relative to wild-type MDCK, 1 μM, 60 minutes, pH 7.4. How it is done: as §1

Data set [2] is described as follows: Human microsomal stability. Type of data set: in vitro ADME. As to conditions: human microsomes, first value of cell; NADPH, 37° C., up to 40 min. As for the experimental part: (§2) This assay measures the metabolic stability of a given compound and predicts intrinsic liver clearance for various species. A quench plate is initially prepared which contains 400 μL MeCN and 25 ng/mL of internal standard. An aliquot of microsomes is defrosted and subsequently diluted with buffer. A solution of NADPH is made up fresh just before initialising the assay. 445 μL of microsome solution is added to the desired compound (5 μL in 10 μM DMSO) and the resulting solution mixed. The reaction is initiated by the addition of 50 μL of NADPH, a T0 sample is removed before the addition and quenched. The sample plate is kept at a constant 37° C. during the incubation. At pre-determined timepoints (2.5, 5, 10, 20 and 40 min) the incubation is mixed and 22.5 μL samples are transferred to quench plates. After completion of the time course, the quench plates are sealed and shaken for a minimum of 5 min, before centrifugation at 4000 rpm for 5 min. The supernatant is then subsequently transferred to a fresh plate and diluted 1:3 with MeOH/H2O. The plates are then heat sealed and analysed by a Water Acquity UPLC and a Waters TQ-S mass spectrometer. Waters MassLynx software is used for analysis using an MRM transition that has been previously generated from prior optimisation. After acquiring the data on the system the chromatograms are processed and checked using TargetLynx XS software and the raw data output is copied into a microsomal stability workbook. The workbook automatically populates and derives the CLint, t1/2 and scales the CLint values to generate Eh and predicted CL values. The analyst has the final workbook quality checked before the experiment is signed off.

The next data set in a line: Rat microsomal stability. In kind it is in vitro ADME. As to conditions: rat microsomes, second value of cell; NADPH, 37° C., up to 40 min. How it is done: as §2

T2 sequence (P08183 whole entry, species assumed): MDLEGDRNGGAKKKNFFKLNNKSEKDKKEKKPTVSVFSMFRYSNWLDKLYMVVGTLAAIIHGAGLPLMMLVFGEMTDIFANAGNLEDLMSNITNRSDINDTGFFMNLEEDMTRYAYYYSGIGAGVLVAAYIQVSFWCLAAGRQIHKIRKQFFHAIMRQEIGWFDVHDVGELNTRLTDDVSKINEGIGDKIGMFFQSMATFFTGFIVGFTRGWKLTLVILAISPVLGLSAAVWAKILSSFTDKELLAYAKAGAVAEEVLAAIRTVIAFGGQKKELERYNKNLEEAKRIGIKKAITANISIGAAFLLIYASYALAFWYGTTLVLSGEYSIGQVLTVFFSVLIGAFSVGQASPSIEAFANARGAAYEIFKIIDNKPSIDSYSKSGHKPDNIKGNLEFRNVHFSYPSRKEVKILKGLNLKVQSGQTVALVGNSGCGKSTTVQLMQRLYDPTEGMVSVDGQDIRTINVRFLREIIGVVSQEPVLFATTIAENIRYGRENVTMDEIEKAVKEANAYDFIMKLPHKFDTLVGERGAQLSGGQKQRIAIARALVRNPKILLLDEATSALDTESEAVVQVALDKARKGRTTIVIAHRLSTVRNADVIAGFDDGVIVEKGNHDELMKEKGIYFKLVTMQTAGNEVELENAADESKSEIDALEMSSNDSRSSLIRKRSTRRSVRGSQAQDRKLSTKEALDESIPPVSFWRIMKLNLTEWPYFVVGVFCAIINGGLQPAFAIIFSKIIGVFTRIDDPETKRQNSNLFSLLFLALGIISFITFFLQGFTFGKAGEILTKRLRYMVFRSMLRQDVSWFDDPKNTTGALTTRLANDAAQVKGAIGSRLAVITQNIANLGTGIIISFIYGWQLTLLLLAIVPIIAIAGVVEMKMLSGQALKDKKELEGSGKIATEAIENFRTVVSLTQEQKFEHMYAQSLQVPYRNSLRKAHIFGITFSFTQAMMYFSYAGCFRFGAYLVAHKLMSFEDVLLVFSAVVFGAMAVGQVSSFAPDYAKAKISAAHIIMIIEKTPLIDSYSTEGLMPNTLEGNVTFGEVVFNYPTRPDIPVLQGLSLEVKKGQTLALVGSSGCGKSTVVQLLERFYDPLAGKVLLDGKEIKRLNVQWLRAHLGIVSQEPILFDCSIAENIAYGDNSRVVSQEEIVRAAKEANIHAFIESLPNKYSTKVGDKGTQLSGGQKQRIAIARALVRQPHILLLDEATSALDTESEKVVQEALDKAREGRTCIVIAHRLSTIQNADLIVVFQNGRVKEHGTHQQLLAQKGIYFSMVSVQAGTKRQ

Compound `Cc1ccc(C(=O)Nc2cc(C(F)(F)F)ccn2)cc1-n1cc(-c2cncc(F)c2)cn1` [Example 8, 3-[4-(5-Fluoropyridin-3-yl)-1H-pyrazol-1-yl]-4-methyl-N-[4-(trifluoromethyl)pyridin-2-yl]benzamide] had an IC50 in data set [1] of 29 nM. For the same compound, the “MDCK MDR1 EER” value on MDR1 stood at 1.6. For the same compound, the “MDCK BCRP EER” value on BCRP stood at 1.1.
On to `Cc1ccc(C(=O)Nc2cc(C(F)(F)F)cnn2)cc1-n1cc(-c2cccnc2)nn1` [compound 3, 4-Methyl-3-[4-(3-pyridyl)triazol-1-yl]-N-[5-(trifluoromethyl)pyridazin-3-yl]benzamide, reference compound], for which, at MDR1, the “MDCK MDR1 EER” value was determined as 9.8. In addition, the “MDCK BCRP EER” value at BCRP turned out to be 8.5.
On to `Cc1ccc(C(=O)Nc2cc(C(F)(F)F)c(CN3CCN(C)CC3)cn2)cc1-n1cc(-c2cccnc2)cn1` [compound 6, 4-Methyl-N-[5-[(4-methylpiperazin-1-yl)methyl]-4-(trifluoromethyl)-2-pyridyl]-3-[4-(3-pyridyl)pyrazol-1-yl]benzamide, reference compound], for which the “MDCK MDR1 EER” value on MDR1 is 15.8. In addition, the “MDCK BCRP EER” value on BCRP turned out to be 5.0.
As to `Cc1cncc(-c2cnn(-c3cc(C(=O)Nc4cc(C(F)(F)F)ccn4)ccc3C)c2)c1` [Example 7], 32 nM corresponded to half-maximal inhibition in data set [1] (IC50). For the same compound, the “MDCK MDR1 EER” value on MDR1 amounted to 1.2. Besides, the “MDCK BCRP EER” value on BCRP came to 0.8.
`Cc1ccc(C(=O)Nc2cc(C(F)(F)F)cnn2)cc1-n1cc(-c2cccnc2)cn1` [Example 2, 4-Methyl-3-[4-(3-pyridyl)pyrazol-1-yl]-N-[5-(trifluoromethyl)pyridazin-3-yl]benzamide] returned an IC50 in data set [1] of 40 nM. In addition, at MDR1, the “MDCK MDR1 EER” value was found to be 2.9. The “MDCK BCRP EER” value on BCRP came to 1.5. The “Microsomal stability (human/rat) Eh” value in data set [2] turned out to be 0.56; in the data set “Rat microsomal stability”, 0.67.
Compound `Cc1ccc(C(=O)Nc2cc(C(F)(F)F)ccn2)cc1-n1ccc(-c2cccnc2)n1` [Comparative example 4, 4-Methyl-3-[3-(3-pyridyl)pyrazol-1-yl]-N-[4-(trifluoromethyl)-2-pyridyl]benzamide, reference compound] came in with an IC50 in data set [1] of 2710 nM.
`COc1cncc(-c2cnn(-c3cc(C(=O)Nc4cc(C(F)(F)F)ccn4)ccc3C)c2)c1` [Example 9, 3-[4-(5-methoxypyridin-3-yl)-1H-pyrazol-1-yl]-4-methyl-N-[4-(trifluoromethyl)pyridin-2-yl]benzamide] showed an IC50 in data set [1] of 28 nM. Further, the “MDCK MDR1 EER” value at MDR1 is 1.2. In addition, on BCRP, the “MDCK BCRP EER” value is 1.1.
In the case of `Cc1ccc(C(=O)Nc2cc(C(F)(F)F)ccn2)cc1-n1cc(-c2cnn(C)c2C)cn1` [Example 4, 3-[4-(1,5-Dimethylpyrazol-4-yl)pyrazol-1-yl]-4-methyl-N-[4-(trifluoromethyl)-2-pyridyl]benzamide], the IC50 in data set [1] came out at 72 nM. In addition, at MDR1, the “MDCK MDR1 EER” value amounted to 1.2. Moreover, the “MDCK BCRP EER” value on BCRP was 1.3. For the same compound, the “Microsomal stability (human/rat) Eh” value in data set [2] is under 0.44; in the data set “Rat microsomal stability” it was 0.60.
`Cc1ccc(C(=O)Nc2ccc(CN3CCN(C)CC3)c(C(F)(F)F)c2)cc1-n1cc(-c2cnc(N)nc2)nn1` [compound 5, 3-[4-(2-aminopyrimidin-5-yl)triazol-1-yl]-4-methyl-N-[4-[(4-methylpiperazin-1-yl)methyl]-3-(trifluoromethyl)phenyl]benzamide, reference compound]: the “MDCK MDR1 EER” value on MDR1 was 4.3. Besides, the “MDCK BCRP EER” value at BCRP is 2.1.
Turning to `Cc1ccc(C(=O)Nc2cc(CN3CCOCC3)cc(C(F)(F)F)c2)cc1-n1cc(-c2cccnc2)cn1` [Comparative example 2, 4-Methyl-N-[3-(morpholinomethyl)-5-(trifluoromethyl)phenyl]-3-[4-(3-pyridyl)pyrazol-1-yl]benzamide, reference compound], the “MDCK MDR1 EER” value on MDR1 is reported as 6.5. Moreover, the “MDCK BCRP EER” value at BCRP amounted to 1.8. Moreover, the “Microsomal stability (human/rat) Eh” value in data set [2] stood at 0.96; in the data set “Rat microsomal stability”, 0.99.
For `Cc1ccc(C(=O)Nc2cc(C(F)(F)F)ccn2)cc1-n1cc(-c2cncc(N3CCN(C)CC3)c2)cn1` [Example 6, 4-Methyl-3-[4-[5-(4-methylpiperazin-1-yl)-3-pyridyl]pyrazol-1-yl]-N-[4-(trifluoromethyl)-2-pyridyl]benzamide], in data set [1], the IC50 amounted to 83 nM.
Regarding `Cc1ccc(C(=O)Nc2cc(C(F)(F)F)cc(C#N)n2)cc1-n1cc(-c2cccnc2)cn1` [Example 10, N-[6-cyano-4-(trifluoromethyl)pyridin-2-yl]-4-methyl-3-[4-(pyridin-3-yl)-1H-pyrazol-1-yl]benzamide], the IC50 in data set [1] is 18 nM. The “Microsomal stability (human/rat) Eh” value in data set [2] is on record as 0.70; in the data set “Rat microsomal stability”, 0.65.
As to `CNc1ncc(-c2cnn(-c3cc(C(=O)Nc4cc(C(F)(F)F)ccn4)ccc3C)c2)cn1` [Example 5, 4-Methyl-3-[4-[2-(methylamino)pyrimidin-5-yl]pyrazol-1-yl]-N-[4-(trifluoromethyl)-2-pyridyl]benzamide], the IC50 in data set [1] was found to be 54 nM. The “MDCK MDR1 EER” value at MDR1 is 1.1. Moreover, the “MDCK BCRP EER” value on BCRP is listed as 1.0.
As to `Cc1ccc(C(=O)Nc2cc(CN3CCCC3)cc(C(F)(F)F)c2)cc1-n1cc(-c2cccnc2)cn1` [Comparative example 1, 4-Methyl-3-[4-(3-pyridyl)pyrazol-1-yl]-N-[3-(pyrrolidin-1-ylmethyl)-5-(trifluoromethyl)phenyl]benzamide, reference compound], the “Microsomal stability (human/rat) Eh” value in data set [2] is 0.81; in “Rat microsomal stability” it was 0.93.
